The values that follow come from PubChem BioAssay (NCI).

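Assay format: 96-well plates, 48-hour exposure. TGI marks complete inhibition of growth.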

Some test systems named below: UACC-62 melanoma; HCT-116 colon; KM12 colon; NCI-H23 lung; U251 CNS; 786-0 renal; ACHN renal; OVCAR-8 ovarian; SF-539 CNS; RXF 393 renal; M14 melanoma; MALME-3M melanoma; SK-MEL-2 melanoma; K-562 leukemia; SK-OV-3 ovarian; MDA-MB-231 breast; MCF7 breast; HCC-2998 colon; PC-3 prostate.
Assay in all cases: inhibition of tumour cell growth, NCI panel, 48 h

With `BrC1=CCC23CC=C(Br)[C@H]4CC2(COC3)C[C@@H]1O4` (some centres undefined), the TGI with UACC-62 melanoma, in the assay with HCT-116 colon, in the assay on KM12 colon, in the assay with NCI-H23 lung, in the assay on U251 CNS and in the assay on 786-0 renal was more than 100 µM each time. Moreover, the TGI was more than 100 µM in the assay on ACHN renal; more than 100 µM in the assay on OVCAR-8 ovarian; more than 100 µM with SF-539 CNS; 93.5 µM in the assay with RXF 393 renal; more than 100 µM in the assay with M14 melanoma; more than 100 µM with MALME-3M melanoma. Besides, the figures for the TGI in the assay with SK-MEL-2 melanoma and in the assay on K-562 leukemia were more than 100 µM and 89 µM, respectively.
In the case of `O=c1cc(-c2ccccc2)c2ccccc2[nH]1`, the TGI in the assay on UACC-62 melanoma, with HCT-116 colon, with KM12 colon, in the assay with NCI-H23 lung, with U251 CNS and in the assay with 786-0 renal was more than 100 µM in each case. The TGI in the assay on ACHN renal is more than 100 µM; in the assay on OVCAR-8 ovarian, more than 100 µM; in the assay with SK-OV-3 ovarian, 84.8 µM; with SF-539 CNS, more than 100 µM; in the assay with RXF 393 renal it was more than 100 µM; in the assay with M14 melanoma, more than 100 µM. The values for the TGI in the assay on MALME-3M melanoma, with SK-MEL-2 melanoma and with K-562 leukemia were 90.9 µM, more than 100 µM and more than 100 µM, respectively.
Take `COC(=O)/C=C\COCC1C2CCC(=O)C21` (centres undefined): the TGI in the assay on MDA-MB-231 breast, with UACC-62 melanoma, in the assay with HCT-116 colon, in the assay on KM12 colon, in the assay on NCI-H23 lung and in the assay on U251 CNS was more than 25 µM throughout. Besides, the TGI in the assay on MCF7 breast, in the assay on 786-0 renal, in the assay on ACHN renal, in the assay with HCC-2998 colon, in the assay with OVCAR-8 ovarian and in the assay on SK-OV-3 ovarian was more than 25 µM in each case. Also, the TGI was more than 25 µM in the assay with PC-3 prostate; 19.4 µM in the assay with SF-539 CNS; more than 25 µM in the assay with RXF 393 renal; more than 25 µM in the assay with M14 melanoma; 13.3 µM with MALME-3M melanoma; more than 25 µM in the assay on SK-MEL-2 melanoma. The TGI in the assay with K-562 leukemia was more than 25 µM.
With `CC(=O)C1(Cc2cccc3ccccc23)S(=O)(=O)OCCOS1(=O)=O`, the TGI amounted to 29.6 µM in the assay with MDA-MB-231 breast; 31.9 µM in the assay with UACC-62 melanoma; 41 µM in the assay on HCT-116 colon; 28.8 µM in the assay with KM12 colon; 60.4 µM in the assay with NCI-H23 lung; 31.1 µM with U251 CNS. The TGI turned out to be 39.7 µM in the assay on MCF7 breast; 44 µM with 786-0 renal; 38 µM in the assay with ACHN renal; 31.6 µM with HCC-2998 colon; 55.3 µM with OVCAR-8 ovarian; 8.9 µM in the assay with SK-OV-3 ovarian. The TGI in the assay with PC-3 prostate is 29.3 µM; with SF-539 CNS, 37.8 µM; with RXF 393 renal, 26.7 µM; in the assay on M14 melanoma it was 56.7 µM; in the assay with MALME-3M melanoma, 33 µM; in the assay on K-562 leukemia, more than 100 µM.
With `COc1c2cc(C(C)(C)C)cc1Cc1cccc(c1OCc1cccc([N+](=O)[O-])c1)Cc1cc(C(C)(C)C)cc(c1OC)Cc1cccc(c1OCc1cccc([N+](=O)[O-])c1)Cc1cc(C(C)(C)C)cc(c1OC)Cc1cccc(c1OCc1cccc([N+](=O)[O-])c1)C2`, the TGI in the assay with MDA-MB-231 breast, with UACC-62 melanoma, in the assay on HCT-116 colon, with KM12 colon, in the assay with NCI-H23 lung and in the assay on U251 CNS was more than 50 µM each time. The TGI in the assay on MCF7 breast, in the assay with 786-0 renal, with ACHN renal, in the assay on HCC-2998 colon, in the assay on OVCAR-8 ovarian and in the assay on PC-3 prostate was more than 50 µM each time. The TGI in the assay on SF-539 CNS, with RXF 393 renal, in the assay on M14 melanoma, in the assay on MALME-3M melanoma, with SK-MEL-2 melanoma and in the assay with K-562 leukemia was more than 50 µM each time.
As for `CN1CN(c2ccccc2)C2(CCN(Cc3csc4ccccc34)CC2)C1=O`, the TGI is more than 100 µM in the assay with UACC-62 melanoma; 19.2 µM in the assay on HCT-116 colon; 26.8 µM in the assay with KM12 colon; 80.4 µM with NCI-H23 lung; 37.3 µM in the assay on MCF7 breast; more than 100 µM with 786-0 renal. The TGI was 92.4 µM with ACHN renal; 42.5 µM in the assay on HCC-2998 colon; 72.6 µM in the assay on OVCAR-8 ovarian; more than 100 µM in the assay on SK-OV-3 ovarian; 43 µM in the assay with PC-3 prostate; 48.3 µM in the assay on SF-539 CNS. The TGI was 35.2 µM in the assay with RXF 393 renal, 39.8 µM in the assay with M14 melanoma, 45.5 µM in the assay with MALME-3M melanoma and more than 100 µM in the assay on K-562 leukemia.
Turning to `CCN(C(=O)N[C@@H](Cc1ccccc1)C(=O)N[C@@H](CC(C)C)C(=O)OC)c1ccccc1`, the TGI in the assay on MDA-MB-231 breast was more than 100 µM; in the assay on UACC-62 melanoma, 36.1 µM; with HCT-116 colon, 39.2 µM; in the assay on KM12 colon it was more than 100 µM; in the assay on NCI-H23 lung it was 53.8 µM; with U251 CNS it was 72.7 µM. The TGI is 62 µM in the assay on MCF7 breast; 40.5 µM with 786-0 renal; 51.3 µM in the assay on ACHN renal; more than 100 µM in the assay with HCC-2998 colon; 36.7 µM in the assay with OVCAR-8 ovarian; more than 100 µM in the assay on SK-OV-3 ovarian. The TGI was 97.4 µM in the assay on PC-3 prostate; 36.1 µM with SF-539 CNS; 37.7 µM in the assay on RXF 393 renal; 21.9 µM in the assay with M14 melanoma; more than 100 µM with SK-MEL-2 melanoma; more than 100 µM in the assay on K-562 leukemia.
With `[N-]=[N+]=NC(CCl)c1cn([C@H]2C[C@H](O)[C@@H](CO)O2)c(=O)[nH]c1=O` (some centres undefined), the TGI in the assay on UACC-62 melanoma, in the assay with HCT-116 colon, with KM12 colon, with NCI-H23 lung, with U251 CNS and with 786-0 renal was more than 100 µM each time. The TGI in the assay on ACHN renal, with HCC-2998 colon, in the assay on OVCAR-8 ovarian, with SK-OV-3 ovarian, in the assay with SF-539 CNS and in the assay with RXF 393 renal was more than 100 µM throughout. The TGI in the assay on M14 melanoma, in the assay on MALME-3M melanoma, in the assay with SK-MEL-2 melanoma and with K-562 leukemia was more than 100 µM in each case.
